Measurements from patent US20240368159A1, “HPK1 DEGRADERS, COMPOSITIONS COMPRISING THE HPK1 DEGRADER, AND METHODS OF USING THE SAME” (BIOFRONT LTD, priority 2021, published 2024).

Key:
HPK1 protein [1] = target: T1, HPK1 protein (Homo sapiens, UniProt Q92918); experiment: HPK1 enzyme inhibition assay (ADP-Glo); type: biochemical; conditions: MBP substrate, ATP, ADP-Glo readout
T1 construct: purchased Signal Chem M23-11G-10
T1 sequence (Q92918 1-346 limits assumed): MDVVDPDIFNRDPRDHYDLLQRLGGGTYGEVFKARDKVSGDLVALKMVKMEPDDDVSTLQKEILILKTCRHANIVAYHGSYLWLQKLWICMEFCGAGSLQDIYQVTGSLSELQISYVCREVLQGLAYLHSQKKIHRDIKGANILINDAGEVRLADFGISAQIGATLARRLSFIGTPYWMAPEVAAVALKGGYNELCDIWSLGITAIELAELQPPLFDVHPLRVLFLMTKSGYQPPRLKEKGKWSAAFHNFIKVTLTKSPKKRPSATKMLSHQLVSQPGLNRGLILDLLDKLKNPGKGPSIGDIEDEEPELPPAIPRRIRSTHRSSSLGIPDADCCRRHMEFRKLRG
How it was run: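 Recombinant human HPK1 preincubated with compound 60 min at 25 °C, then reaction with MBP (0.2 ug/ul, 2× stock) and ATP (20 μM, 2× stock) 60 min at 25 °C. ADP formed detected by ADP-Glo after ATP depletion and conversion to ATP; IC50 calculated from signal.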

HPK1 protein [2] = target: T2, HPK1 protein (Homo sapiens, UniProt Q92918); experiment: HPK1 protein degradation in human PBMC (western blot); type: cell-based; conditions: 18 h incubation
T2 construct: Frozen human PBMC were purchased from Shanghai OribioTech; host or cells: human PBMC
Method: HPK1 protein degradation in human PBMC: Frozen human PBMC were purchased from Shanghai OribioTech and recovered with culture medium (RMPI1640) prior to use. The cells were then incubated with a variety of concentrations of compound. After incubation for 18 h, the cells were collected and lysed. The protein concentration was determined by BCA protein assay kit from Thermo (23227). The HPK1 protein level was determined by western blots, using anti-human HPK1 polyclonal antibody from CST (4472S). Proteins were loaded into each well of the pre-casting gels and subjected to electrophoretic separation by SDS-PAGE. The protein resolved by SDS-PAGE were transferred to PVDF, blocked by 5% skim milk, and probed with anti-human HPK1 antibody or β-actin antibody from CST (3700S), using standard western blotting procedure.
T2 sequence (Q92918 whole entry): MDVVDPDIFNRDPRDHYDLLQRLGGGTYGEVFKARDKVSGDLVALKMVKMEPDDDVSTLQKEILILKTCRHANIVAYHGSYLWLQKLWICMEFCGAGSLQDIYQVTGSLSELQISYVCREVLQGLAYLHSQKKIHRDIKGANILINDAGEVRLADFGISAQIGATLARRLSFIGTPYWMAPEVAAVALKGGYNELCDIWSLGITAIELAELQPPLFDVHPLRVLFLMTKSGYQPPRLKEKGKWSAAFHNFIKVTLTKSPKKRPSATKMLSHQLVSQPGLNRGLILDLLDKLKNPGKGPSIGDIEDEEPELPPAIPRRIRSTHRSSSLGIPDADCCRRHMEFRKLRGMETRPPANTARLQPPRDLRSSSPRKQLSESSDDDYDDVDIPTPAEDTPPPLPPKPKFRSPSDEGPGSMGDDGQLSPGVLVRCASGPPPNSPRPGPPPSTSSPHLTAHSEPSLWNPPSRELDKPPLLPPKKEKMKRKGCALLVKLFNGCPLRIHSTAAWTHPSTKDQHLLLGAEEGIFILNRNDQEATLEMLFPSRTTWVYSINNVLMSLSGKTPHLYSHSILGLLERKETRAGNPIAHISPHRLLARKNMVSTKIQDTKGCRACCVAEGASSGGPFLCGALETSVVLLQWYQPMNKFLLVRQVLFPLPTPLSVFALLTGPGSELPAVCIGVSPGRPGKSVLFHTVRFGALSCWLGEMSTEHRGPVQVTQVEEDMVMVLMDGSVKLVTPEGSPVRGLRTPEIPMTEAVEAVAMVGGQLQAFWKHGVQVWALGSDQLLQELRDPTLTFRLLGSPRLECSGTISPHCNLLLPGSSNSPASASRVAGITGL

HPK1 protein [3] = target: T3, HPK1 protein (Mus musculus, UniProt P70218); experiment: HPK1 protein degradation in mouse pan T cell (western blot); type: cell-based; conditions: 18 h incubation
T3 construct: the CD3+ T cell population was isolated from spleenocytes of mice; endogenous in cells; host or cells: primary mouse splenic CD3+ (pan) T cells
T3 sequence (P70218 1-827): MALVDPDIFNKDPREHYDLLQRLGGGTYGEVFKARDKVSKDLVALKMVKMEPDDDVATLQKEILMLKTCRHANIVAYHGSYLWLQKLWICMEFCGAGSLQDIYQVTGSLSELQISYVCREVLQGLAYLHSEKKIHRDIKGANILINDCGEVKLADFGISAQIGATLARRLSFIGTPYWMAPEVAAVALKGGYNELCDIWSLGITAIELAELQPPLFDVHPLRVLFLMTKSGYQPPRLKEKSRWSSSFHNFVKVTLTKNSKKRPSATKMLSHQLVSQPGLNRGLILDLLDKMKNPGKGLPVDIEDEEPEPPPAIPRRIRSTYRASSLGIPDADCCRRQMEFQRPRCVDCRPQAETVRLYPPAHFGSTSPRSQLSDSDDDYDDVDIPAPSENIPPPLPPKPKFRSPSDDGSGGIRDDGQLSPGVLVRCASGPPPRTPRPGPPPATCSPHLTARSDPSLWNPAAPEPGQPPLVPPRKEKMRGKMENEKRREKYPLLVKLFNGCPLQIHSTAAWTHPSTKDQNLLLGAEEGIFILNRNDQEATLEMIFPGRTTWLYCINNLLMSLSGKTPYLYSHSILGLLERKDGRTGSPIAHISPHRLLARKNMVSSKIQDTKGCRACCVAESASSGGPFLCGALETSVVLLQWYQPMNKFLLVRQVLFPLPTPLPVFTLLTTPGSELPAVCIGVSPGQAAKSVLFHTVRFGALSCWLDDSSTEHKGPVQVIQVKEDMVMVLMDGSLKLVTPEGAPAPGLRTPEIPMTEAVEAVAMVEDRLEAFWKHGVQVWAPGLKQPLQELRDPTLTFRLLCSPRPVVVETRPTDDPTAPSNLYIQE
Method: HPK1 protein degradation in mouse pan T cell: the CD3+ T cell population was isolated from spleenocytes of mice by using Pan T cell isolation kit from Miltenyi Biotec (130-095-130) following manufacture's instruction. The isolated T cells were then incubated with a variety of concentrations of compound. After incubation for 18 h, the cells were collected and lysed. The protein concentration was determined by BCA protein assay kit from Thermo (23227). The HPK1 protein level was determined by western blots, using anti-human HPK1 polyclonal antibody from CST (4472). Proteins were loaded into each well of the pre-casting gels and subjected to electrophoretic separation by SDS-PAGE. The protein resolved by SDS-PAGE were transferred to PVDF, blocked by 5% skim milk and probed with anti-human HPK1 antibody or β-actin antibody from CST (3700S), using following standard western blotting procedure.

HPK1 p-SLP-76 = HPK1 p-SLP-76 inhibition assay in human PBMC (HTRF); type: cell-based; conditions: 6 h compound, anti-CD3 stimulation 20 min
Method: Human PBMC were purchased from OriCells (FPB004F-C). Before compound treatment, PBMC were starved in PRMI-1640 medium supplemented with 0.5% FBS overnight. The cell density was adjusted to 1*10^7 cells/mL in assay medium (RPMI-1640 no phenol red with 0.5% FBS) and 16 μL cell suspension was transferred per well to a 384-well plate (Corning #3765). 6× solution of test compound was prepared in assay medium and 4 μL was added per well to the 384-well plate. The plate was then incubated at 37° C., 5% CO2 for 6 h. PBMC in 384-well plate were stimulated with anti-CD3 (BD Biosciences #555329, final conc. is 10 ug/mL) for 20 min at 37° C., 5% CO2 by adding 4 μL 6× antibody solution per well. Phospho-SLP76 HTRF kit was purchased from Cisbio (63ADK076PEH). 8 μL 4× Lysis Buffer was added to 384-well plate after anti-CD3 stimulation. The plate was centrifuged at 1,000 rpm for 1 min, shaken at 250 rpm for 60 min and centrifuged again at 1,000 rpm for 5 min. Afterwards the cell lysates were transferred to the assay plate (Greiner #784075) with 16 μL per well. 4 μL detection antibody mix per well prepared in Detection Buffer was added to the assay plate, followed by centrifugation at 1,000 rpm for 1 min and incubation at 25° C. overnight.

SMILES	IC50 (HPK1 protein [1])	Dmax (HPK1 protein [2])	Dmax (HPK1 protein [3])	IC50 (HPK1 p-SLP-76)
CCc1c[nH]c2ncc(-c3cccc(N4CCN(C(=O)CCOC5CCN(c6ccc7c(c6)C(=O)N(C6CCC(=O)NC6=O)C7=O)CC5)CC4=O)c3)c(Cl)c12 (stereo not drawn) [Example 32]	10 to 100 nM	78%	90%	–
CCc1c[nH]c2ncc(-c3cccc(N4CCN(CCOC5CCN(c6cc7c(cc6F)C(=O)N(C6CCC(=O)NC6=O)C7=O)CC5)CC4=O)c3)c(Cl)c12 (stereo not drawn) [Example 26]	10 to 100 nM	86%	91%	–
O=C1CCC(N2Cc3cc(C4=CC5CCC(C4)N5CCCN4CCN(c5cccc(-c6cnc7[nH]cc(C8CC8)c7c6Cl)c5)C(=O)C4)ccc3C2=O)C(=O)N1 (stereo not drawn) [Example 64, 3-(5-(8-(3-(4-(3-(4-chloro-3-cyclopropyl-1H-pyrrolo[2,3-b]pyridin-5-yl)phenyl)-3-oxopiperazin-1-yl)propyl)-8-azabicyclo[3.2.1]oct-2-en-3-yl)-1-oxoisoindolin-2-yl)piperidine-2,6-dione]	≤ 10 nM	70%	–	–
CC(OC1CCN(c2cc3c(cc2F)C(=O)N(C2CCC(=O)NC2=O)C3=O)CC1)C(=O)N1CCN(c2cccc(-c3cnc4[nH]cc(C5CC5)c4c3Cl)c2)C(=O)C1 (stereo not drawn) [Example 48]	10 to 100 nM	57%	95%	–
CCc1c[nH]c2ncc(-c3cccc(N4CCN(CCCN5CC=C(c6ccc7c(N8CCC(=O)NC8=O)nn(C)c7c6)CC5)CC4=O)c3)c(Cl)c12 [Example 74, 1-(6-(1-(3-(4-(3-(4-chloro-3-ethyl-1H-pyrrolo[2,3-b]pyridin-5-yl)phenyl)-3-oxopiperazin-1-yl)propyl)-1,2,3,6-tetrahydropyridin-4-yl)-1-methyl-1H-indazol-3-yl)dihydropyrimidine-2,4 (1H,3H)-dione]	≤ 10 nM	86%	91%	–
O=C1CCC(N2C(=O)c3cc(F)c(N4CCC5(CC4)CN(CCN4CCN(c6cccc(-c7cnc8[nH]cc(C9CC9)c8c7Cl)c6)C(=O)C4)C5)cc3C2=O)C(=O)N1 (stereo not drawn) [Example 52]	10 to 100 nM	31%	95%	–
CCc1c[nH]c2ncc(-c3cc(N4CCN(C(=O)CN(C)C5CCN(c6cc7c(cc6F)C(=O)N(C6CCC(=O)NC6=O)C7=O)CC5)CC4=O)ccc3F)c(Cl)c12 (stereo not drawn) [Example 44]	10 to 100 nM	30%	50%	–
O=C1CCC(N2C(=O)c3cc(F)c(N4CCC(OCCCN5CCN(c6cccc(-c7cnc8[nH]cc(CC(F)F)c8c7Cl)c6)C(=O)C5)CC4)cc3C2=O)C(=O)N1 (stereo not drawn) [Example 39, 5-(4-(3-(4-(3-(4-chloro-3-(2,2-difluoroethyl)-1H-pyrrolo[2,3-b]pyridin-5-yl)phenyl)-3-oxopiperazin-1-yl)propoxy)piperidin-1-yl)-2-(2,6-dioxopiperidin-3-yl)-6-fluoroisoindoline-1,3-dione]	100 to 1000 nM	85%	80%	–
CCc1c[nH]c2ncc(-c3cccc(N4CCN(CCCN5CCN(c6ccc7c(N8CCC(=O)NC8=O)cccc7c6)CC5)CC4=O)c3)c(Cl)c12 [Example 76, 1-(6-(4-(3-(4-(3-(4-chloro-3-ethyl-1H-pyrrolo[2,3-b]pyridin-5-yl)phenyl)-3-oxopiperazin-1-yl)propyl)piperazin-1-yl)naphthalen-1-yl)dihydropyrimidine-2,4 (1H,3H)-dione]	10 to 100 nM	74%	95%	–
O=C1CCC(N2C(=O)c3cc(F)c(N4CCC(CCN5CCN(c6cccc(-c7cnc8[nH]cc(C9CC9)c8c7Cl)c6)C(=O)C5)CC4)cc3C2=O)C(=O)N1 (stereo not drawn) [Example 45]	10 to 100 nM	78%	90%	–
CN(CC(=O)N1CCN(c2cccc(-c3cnc4[nH]cc(C5CC5)c4c3Cl)c2)C(=O)C1)C1CCN(c2cc3c(cc2F)C(=O)N(C2CCC(=O)NC2=O)C3=O)CC1 (stereo not drawn) [Example 42]	10 to 100 nM	40%	95%	–
CCc1c[nH]c2ncc(-c3cccc(N4CCN(C(=O)CCN5CCN(c6ccc7c(c6)C(=O)N(C6CCC(=O)NC6=O)C7=O)CC5)CC4=O)c3)c(Cl)c12 (stereo not drawn) [Example 21, 5-(4-(3-(4-(3-(4-chloro-3-ethyl-1H-pyrrolo[2,3-b]pyridin-5-yl)phenyl)-3-oxopiperazin-1-yl)-3-oxopropyl)piperazin-1-yl)-2-(2,6-dioxopiperidin-3-yl)isoindoline-1,3-dione]	10 to 100 nM	60%	–	–
CC(COC1CCN(c2cc3c(cc2F)C(=O)N(C2CCC(=O)NC2=O)C3=O)CC1)N1CCN(c2cccc(-c3cnc4[nH]cc(C5CC5)c4c3Cl)c2)C(=O)C1 (stereo not drawn) [Example 49, 5-(4-(2-(4-(3-(4-chloro-3-cyclopropyl-1H-pyrrolo[2,3-b]pyridin-5-yl)phenyl)-3-oxopiperazin-1-yl)propoxy)piperidin-1-yl)-2-(2,6-dioxopiperidin-3-yl)-6-fluoroisoindoline-1,3-dione]	100 to 1000 nM	< 50%	–	–
Cn1nc(N2CCC(=O)NC2=O)c2ccc(C3CCN(CCCN4CCN(c5cccc(-c6cnc7[nH]cc(C8CC8)c7c6Cl)c5)C(=O)C4)CC3)cc21 [Example 77, 1-(6-(1-(3-(4-(3-(4-chloro-3-cyclopropyl-1H-pyrrolo[2,3-b]pyridin-5-yl)phenyl)-3-oxopiperazin-1-yl)propyl)piperidin-4-yl)-1-methyl-1H-indazol-3-yl)dihydro pyrimidine-2,4 (1H,3H)-dione]	≤ 10 nM	–	95%	≤ 300 nM
CCc1c[nH]c2ncc(-c3cccc(N4CCN(C(=O)CCN5CCN(C(=O)c6ccc(C)c(N7CCC(=O)NC7=O)c6)CC5)CC4=O)c3)c(Cl)c12 [Example 50, 1-(5-(4-(3-(4-(3-(4-chloro-3-ethyl-1H-pyrrolo[2,3-b]pyridin-5-yl)phenyl)-3-oxopiperazin-1-yl)-3-oxopropyl)piperazine-1-carbonyl)-2-methylphenyl)dihydro pyrimidine-2,4 (1H,3H)-dione]	≤ 10 nM	–	80%	> 10000 nM
